In brackets after ≈: the same amount, converted by molar mass.
How the values were obtained:
[1] = Antiproliferative activity against human KARPAS299 cells incubated for 72 hrs by cell titer-glo assay; conditions: KARPAS-299, 72 h
Insulin receptor = Insulin receptor (Homo sapiens, UniProt P06213); test: Inhibition of IR (unknown origin) in presence of gamma33-ATP
[2] = biological target: ALK tyrosine kinase receptor (Homo sapiens, UniProt Q9UM73)
Description: Inhibition of recombinant ALK (unknown origin) in presence of gamma33-ATP

[3] = Solubility of compound at pH 7 buffer; assay type: physicochemical
[4] = Apparent permeability from apical to basolateral side in human Caco2 cells at 2.5 mg/ml after 2 hrs by reversed-phase HPLC method; assay type: ADME, cell-based; conditions: Caco-2
[5] = Apparent permeability from basolateral to apical side in human Caco2 cells at 2.5 mg/ml after 2 hrs by reversed-phase HPLC method; assay type: ADME, cell-based; conditions: Caco-2
[6] = Intrinsic clearance in human liver microsomes at […] preincubated for 5 mins followed by NADPH addition measured after 5 to 30 mins by LC-MS/MS analysis; assay type: ADME; conditions: read-out: CLH
[7] = Intrinsic clearance in rat hepatocytes at […] after 10 to 90 mins by LC-MS/MS analysis; assay type: ADME, cell-based, Hepatocyte; conditions: read-out: CLH
[8] = Cmax in Harlan nu/nu mouse at 10 mg/kg, iv administered as single dose by LC-MS/MS analysis; assay type: ADME, organism-based; parameters: dose 10 mg/kg, route intravenous; conditions: in vivo
[9] = AUC (infinity) in Harlan nu/nu mouse at 10 mg/kg, iv administered as single dose by LC-MS/MS analysis; assay type: ADME, organism-based; parameters: dose 10 mg/kg, time infinity, route intravenous; conditions: in vivo
[10] = Clearance in Harlan nu/nu mouse at 10 mg/kg, iv administered as single dose by LC-MS/MS analysis; assay type: ADME, organism-based; conditions: in vivo
[11] = Volume of distribution at steady state in Harlan nu/nu mouse at 10 mg/kg, iv administered as single dose by LC-MS/MS analysis; conditions: in vivo
[12] = Half life in Harlan nu/nu mouse at 10 mg/kg, iv administered as single dose by LC-MS/MS analysis; assay type: ADME, organism-based; conditions: in vivo
[13] = Cmax in Harlan nu/nu mouse at 10 mg/kg, po administered as single dose by LC-MS/MS analysis; assay type: ADME, organism-based; parameters: dose 10 mg/kg, route oral; conditions: in vivo
[14] = Tmax in Harlan nu/nu mouse at 10 mg/kg, po administered as single dose by LC-MS/MS analysis; assay type: ADME, organism-based; conditions: in vivo
[15] = AUC (infinity) in Harlan nu/nu mouse at 10 mg/kg, po administered as single dose by LC-MS/MS analysis; assay type: ADME, organism-based; parameters: dose 10 mg/kg, route oral, time infinity; conditions: in vivo
[16] = Oral bioavailability in Harlan nu/nu mouse at 10 mg/kg administered as single dose by LC-MS/MS analysis; assay type: ADME, organism-based; conditions: in vivo
[17] = Half life in Harlan nu/nu mouse at 10 mg/kg, po administered as single dose by LC-MS/MS analysis; assay type: ADME, organism-based; conditions: in vivo

Insulin receptor, sequence (P06213 28-758 limits assumed): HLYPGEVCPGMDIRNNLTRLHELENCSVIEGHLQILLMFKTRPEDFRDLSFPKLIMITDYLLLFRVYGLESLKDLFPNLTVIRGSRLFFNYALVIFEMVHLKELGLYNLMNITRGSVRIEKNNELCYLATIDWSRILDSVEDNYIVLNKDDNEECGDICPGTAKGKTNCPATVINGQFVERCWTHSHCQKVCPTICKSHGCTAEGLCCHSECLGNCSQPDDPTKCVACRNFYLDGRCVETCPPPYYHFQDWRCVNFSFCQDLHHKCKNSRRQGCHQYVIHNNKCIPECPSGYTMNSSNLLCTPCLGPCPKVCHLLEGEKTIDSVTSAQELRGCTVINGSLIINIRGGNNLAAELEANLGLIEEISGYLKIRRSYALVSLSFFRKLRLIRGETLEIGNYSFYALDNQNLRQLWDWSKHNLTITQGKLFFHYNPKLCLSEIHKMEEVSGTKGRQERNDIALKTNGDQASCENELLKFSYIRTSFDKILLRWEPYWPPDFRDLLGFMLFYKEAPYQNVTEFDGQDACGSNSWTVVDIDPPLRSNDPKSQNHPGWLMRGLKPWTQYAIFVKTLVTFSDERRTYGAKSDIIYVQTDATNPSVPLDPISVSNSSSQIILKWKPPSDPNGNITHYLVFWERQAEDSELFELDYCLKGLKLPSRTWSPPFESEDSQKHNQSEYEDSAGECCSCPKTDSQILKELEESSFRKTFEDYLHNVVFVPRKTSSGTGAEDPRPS
Insulin receptor, sequence (P06213 763-1382 limits assumed): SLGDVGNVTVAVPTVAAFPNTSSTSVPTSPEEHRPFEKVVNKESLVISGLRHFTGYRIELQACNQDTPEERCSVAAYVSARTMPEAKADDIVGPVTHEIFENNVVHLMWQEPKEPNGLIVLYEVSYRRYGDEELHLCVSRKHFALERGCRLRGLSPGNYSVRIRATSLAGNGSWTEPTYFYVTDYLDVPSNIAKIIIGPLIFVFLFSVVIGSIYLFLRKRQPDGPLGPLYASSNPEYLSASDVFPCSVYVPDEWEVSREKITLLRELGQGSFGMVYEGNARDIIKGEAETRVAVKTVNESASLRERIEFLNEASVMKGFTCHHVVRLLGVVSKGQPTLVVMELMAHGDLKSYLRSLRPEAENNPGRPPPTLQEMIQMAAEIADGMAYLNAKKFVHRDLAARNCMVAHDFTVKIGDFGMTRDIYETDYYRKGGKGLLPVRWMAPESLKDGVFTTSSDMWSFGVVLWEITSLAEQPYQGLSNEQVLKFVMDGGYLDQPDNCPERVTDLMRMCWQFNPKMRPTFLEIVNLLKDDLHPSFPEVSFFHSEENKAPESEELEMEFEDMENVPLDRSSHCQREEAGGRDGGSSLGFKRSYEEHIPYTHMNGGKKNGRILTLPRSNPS
ALK tyrosine kinase receptor, sequence (Q9UM73 whole entry): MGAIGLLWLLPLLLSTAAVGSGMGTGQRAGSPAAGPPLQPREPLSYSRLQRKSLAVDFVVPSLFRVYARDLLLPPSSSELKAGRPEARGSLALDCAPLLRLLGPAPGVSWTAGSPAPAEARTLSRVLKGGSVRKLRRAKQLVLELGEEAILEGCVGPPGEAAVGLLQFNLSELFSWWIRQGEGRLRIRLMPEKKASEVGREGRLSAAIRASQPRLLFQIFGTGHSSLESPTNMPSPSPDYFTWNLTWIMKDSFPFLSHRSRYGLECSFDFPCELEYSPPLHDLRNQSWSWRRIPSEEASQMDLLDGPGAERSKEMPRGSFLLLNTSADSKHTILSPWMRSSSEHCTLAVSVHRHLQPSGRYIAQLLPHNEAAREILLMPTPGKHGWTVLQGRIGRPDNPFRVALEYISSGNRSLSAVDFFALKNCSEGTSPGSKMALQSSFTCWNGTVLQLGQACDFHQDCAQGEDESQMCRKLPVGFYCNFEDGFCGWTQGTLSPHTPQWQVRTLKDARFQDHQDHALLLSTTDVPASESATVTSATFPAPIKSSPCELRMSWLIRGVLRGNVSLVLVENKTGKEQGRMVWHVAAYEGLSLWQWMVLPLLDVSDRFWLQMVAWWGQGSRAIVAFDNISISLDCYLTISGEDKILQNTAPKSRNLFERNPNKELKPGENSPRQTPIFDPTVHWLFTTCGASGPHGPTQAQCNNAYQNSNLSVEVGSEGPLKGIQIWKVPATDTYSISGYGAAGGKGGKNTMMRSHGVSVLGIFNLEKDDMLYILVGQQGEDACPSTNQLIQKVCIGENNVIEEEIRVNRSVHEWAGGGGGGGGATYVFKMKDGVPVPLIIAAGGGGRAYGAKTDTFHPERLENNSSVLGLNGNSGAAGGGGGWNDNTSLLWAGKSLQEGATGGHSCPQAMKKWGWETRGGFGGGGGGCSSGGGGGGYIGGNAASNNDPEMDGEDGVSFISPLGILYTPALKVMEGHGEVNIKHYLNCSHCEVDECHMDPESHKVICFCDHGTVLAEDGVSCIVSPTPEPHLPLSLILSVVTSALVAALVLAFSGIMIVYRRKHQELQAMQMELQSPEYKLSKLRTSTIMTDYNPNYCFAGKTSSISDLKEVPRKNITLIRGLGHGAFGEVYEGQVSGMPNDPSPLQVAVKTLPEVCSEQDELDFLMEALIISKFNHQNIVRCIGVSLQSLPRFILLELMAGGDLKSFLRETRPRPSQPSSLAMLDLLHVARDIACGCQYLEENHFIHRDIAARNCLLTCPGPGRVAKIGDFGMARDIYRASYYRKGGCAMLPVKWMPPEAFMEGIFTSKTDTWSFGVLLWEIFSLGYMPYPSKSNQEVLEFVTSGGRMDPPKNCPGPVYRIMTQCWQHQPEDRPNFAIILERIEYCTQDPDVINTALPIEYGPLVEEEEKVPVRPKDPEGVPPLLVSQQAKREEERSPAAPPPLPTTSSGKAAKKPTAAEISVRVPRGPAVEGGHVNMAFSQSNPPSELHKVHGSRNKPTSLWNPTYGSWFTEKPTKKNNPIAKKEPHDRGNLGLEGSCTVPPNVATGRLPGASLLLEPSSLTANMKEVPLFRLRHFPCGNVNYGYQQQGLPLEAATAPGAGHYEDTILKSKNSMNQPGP

| Compound | IC50 [1] [nM] | IC50 (Insulin receptor) [nM] | IC50 [2] [nM] | other results |
| --- | --- | --- | --- | --- |
| C[C@H](c1cc(F)cc(F)c1)c1ccc2[nH]nc(NC(=O)c3ccc(N4CCN(C)CC4)cc3NC3CCOCC3)c2c1 | 41 | 1160 | 59 |  |
| CN1CCN(c2ccc(C(=O)Nc3n[nH]c4ccc(Cc5cc(F)cc(F)c5)cc34)c(N[C@H]3CC[C@H](O)CC3)c2)CC1 | 68 | 189 | 10 | solubility [3]: 7 µM (≈ 4.02 µg/mL); Papp A→B at 2 h, 2.5 mg/ml [4]: 1.8 ×10⁻⁶ cm/s; Papp B→A at 2 h, 2.5 mg/ml [5]: 5.1 ×10⁻⁶ cm/s; CLint scaled [6]: 25 mL/min/kg; CLint scaled [7]: 45 mL/min/kg; Cmax [8]: 7.06 µM; AUC(0-inf) [9]: 13.1 µM·h; clearance [10]: 21.3 mL/min/kg; Vd [11]: 3.02 L/kg; half-life [12]: 181 min; Cmax [13]: 360 nM; Tmax [14]: 1 h; AUC(0-inf) [15]: 1.25 µM·h; bioavailability [16]: 7.3% |
| COC[C@@H](C)Nc1cc(N2CCN(C)CC2)ccc1C(=O)Nc1n[nH]c2ccc(Cc3cc(F)cc(F)c3)cc12 | 74 | 1070 | 72 |  |
| CN1CCN(c2ccc(C(=O)Nc3n[nH]c4ccc(Cc5ccccc5)cc34)c(NC3CCOCC3)c2)CC1 | 182 | 1490 | 106 |  |
| CN1CCN(c2ccc(C(=O)Nc3n[nH]c4ccc(Cc5cc(F)cc(F)c5)cc34)c(NCc3ccccc3)c2)CC1 | 1260 | 3690 | 378 |  |
| CN1CCN(c2ccc(C(=O)Nc3n[nH]c4ccc(Cc5cc(F)cc(F)c5)cc34)c(N[C@H]3CC[C@@H](O)CC3)c2)CC1 | 162 | 707 | 98 |  |
| CN1CCC(Nc2cc(N3CCN(C)CC3)ccc2C(=O)Nc2n[nH]c3ccc(Cc4cc(F)cc(F)c4)cc23)CC1 | 438 | 330 | 15 | Papp A→B at 2 h, 2.5 mg/ml [4]: 1.5 ×10⁻⁶ cm/s |
| COCCNc1cc(N2CCN(C)CC2)ccc1C(=O)Nc1n[nH]c2ccc(Cc3cc(F)cc(F)c3)cc12 | 243 | 1760 | 210 |  |
| CN1CCN(c2ccc(C(=O)Nc3n[nH]c4ccc(Cc5cc(F)cc(F)c5)cc34)c(NC3CCCCC3)c2)CC1 | 609 | 3820 | 560 |  |
| COCC(COC)Nc1cc(N2CCN(C)CC2)ccc1C(=O)Nc1n[nH]c2ccc(Cc3cc(F)cc(F)c3)cc12 | 340 | 1640 | 99 |  |
| CN1CCN(c2ccc(C(=O)Nc3n[nH]c4ccc(Cc5cc(F)cc(F)c5)cc34)c(NCCO)c2)CC1 | 118 | 906 | 26 |  |
| CN1CCN(c2ccc(C(=O)Nc3n[nH]c4ccc(Cc5cc(F)cc(F)c5)cc34)c(NCCF)c2)CC1 | 49 | 462 | 14 | solubility [3]: 16 µM (≈ 8.36 µg/mL); Papp A→B at 2 h, 2.5 mg/ml [4]: 2.4 ×10⁻⁶ cm/s; Papp B→A at 2 h, 2.5 mg/ml [5]: 1.5 ×10⁻⁶ cm/s; CLint scaled [6]: 24 mL/min/kg; CLint scaled [7]: 18 mL/min/kg; Cmax [8]: 7.58 µM; AUC(0-inf) [9]: 24.7 µM·h; clearance [10]: 11.7 mL/min/kg; Vd [11]: 4.76 L/kg; half-life [12]: 355 min; Cmax [13]: 1880 nM; Tmax [14]: 4.33 h; AUC(0-inf) [15]: 31.5 µM·h; half-life [17]: 592 min; bioavailability [16]: 99% |
| CN1CCC(Oc2ccc(C(=O)Nc3n[nH]c4ccc(Cc5cc(F)cc(F)c5)cc34)c(NC3CCOCC3)c2)CC1 | 43 | 196 | 9 | solubility [3]: 59 µM (≈ 34 µg/mL); Papp A→B at 2 h, 2.5 mg/ml [4]: 0.3 ×10⁻⁶ cm/s; Papp B→A at 2 h, 2.5 mg/ml [5]: 2 ×10⁻⁶ cm/s; CLint scaled [6]: 12 mL/min/kg; CLint scaled [7]: 49 mL/min/kg; Cmax [8]: 6.93 µM; AUC(0-inf) [9]: 33.1 µM·h; clearance [10]: 8.16 mL/min/kg; Vd [11]: 2.62 L/kg; half-life [12]: 296 min; Cmax [13]: 800 nM; Tmax [14]: 6 h; AUC(0-inf) [15]: 11 µM·h; half-life [17]: 245 min; bioavailability [16]: 29.3% |
| CN1CCN(c2ccc(C(=O)Nc3n[nH]c4ccc(Cc5cc(F)cc(F)c5)cc34)cc2)CC1 | 253 | 1810 | 73 |  |
| Cc1ccc(F)cc1Cc1ccc2[nH]nc(NC(=O)c3ccc(N4CCN(C)CC4)cc3NC3CCOCC3)c2c1 | 851 | 823 | 181 |  |
| CN(C)CCN(C)C(=O)c1ccc(C(=O)Nc2n[nH]c3ccc(Cc4cc(F)cc(F)c4)cc23)c(NC2CCOCC2)c1 | 50 | 457 | 15 | solubility [3]: 51 µM (≈ 30.1 µg/mL); Papp A→B at 2 h, 2.5 mg/ml [4]: 2.7 ×10⁻⁶ cm/s; Papp B→A at 2 h, 2.5 mg/ml [5]: 19.8 ×10⁻⁶ cm/s; CLint scaled [6]: 57 mL/min/kg; CLint scaled [7]: 42 mL/min/kg; Cmax [8]: 10.3 µM; AUC(0-inf) [9]: 7.86 µM·h; clearance [10]: 38.8 mL/min/kg; Vd [11]: 4.41 L/kg; half-life [12]: 170 min |
| CN1CCN(c2ccc(C(=O)Nc3n[nH]c4ccc(Cc5cc(F)cc(F)c5)cc34)c(NCC3CN(C)C3)c2)CC1 | 386 | 353 | 67 |  |
| COCCCNc1cc(N2CCN(C)CC2)ccc1C(=O)Nc1n[nH]c2ccc(Cc3cc(F)cc(F)c3)cc12 | 194 | 1190 | 135 |  |
| CN1CCN(c2ccc(C(=O)Nc3n[nH]c4ccc(Cc5cccc(F)c5)cc34)c(NC3CCOCC3)c2)CC1 | 18 | 427 | 30 |  |
| O=C(Nc1n[nH]c2ccc(Cc3cc(F)cc(F)c3)cc12)c1ccc(N2CCNCC2)cc1NC1CCOCC1 | 13 | 41 | 3 | solubility [3]: 103 µM (≈ 56.3 µg/mL); Papp A→B at 2 h, 2.5 mg/ml [4]: 0.6 ×10⁻⁶ cm/s; Papp B→A at 2 h, 2.5 mg/ml [5]: 4.5 ×10⁻⁶ cm/s; CLint scaled [6]: 7.5 mL/min/kg; CLint scaled [7]: 52 mL/min/kg; Cmax [8]: 40.5 µM; AUC(0-inf) [9]: 42.2 µM·h; clearance [10]: 7.01 mL/min/kg; Vd [11]: 1.4 L/kg; half-life [12]: 286 min; Cmax [13]: 81 nM; Tmax [14]: 6 h; AUC(0-inf) [15]: 1.33 µM·h; half-life [17]: 578 min; bioavailability [16]: 2.9% |
| CN1CCN(c2ccc(C(=O)Nc3n[nH]c4ccc(Cc5cc(F)cc(F)c5)cc34)c(N)c2)CC1 | 214 | 1300 | 67 |  |
| CN1CCN(c2ccc(C(=O)Nc3n[nH]c4ccc(Cc5cc(F)cc(F)c5)cc34)c(Nc3ccccc3)c2)CC1 | 991 | 9870 | 684 |  |
| C[C@@H](c1cc(F)cc(F)c1)c1ccc2[nH]nc(NC(=O)c3ccc(N4CCN(C)CC4)cc3NC3CCOCC3)c2c1 | 16 | 189 | 19 |  |
| CN1CCN(c2ccc(C(=O)Nc3n[nH]c4ccc(Cc5cc(F)ccc5F)cc34)c(NC3CCOCC3)c2)CC1 | 49 | 170 | 38 |  |

— ChEMBL document CHEMBL3804811 (J Med Chem, 2016)
